Reference: ChEMBL document CHEMBL1201862, “PubChem BioAssay data set” (2004)
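These data come from cells grown in 96-well plates and exposed to compound for 48 hours at five concentrations. Abbreviation: GI50, concentration required for 50% inhibition of growth.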 Activity calls are given as the source filed them. Cut-off read from the data, not from the text of the source: active = GI50 up to about 1.1 µM and inactive = higher.

Key:
Experiment in all cases: growth of human tumour cells (NCI), 48 h
DU-145 = system: DU-145
HCT-116 = system: HCT-116
HCT-15 = system: HCT-15
HOP-92 = system: HOP-92
Hs-578T = system: Hs-578T
IGROV-1 = system: IGROV-1
K562 = system: K562
MDA-MB-231 = system: MDA-MB-231
MDA-N = system: MDA-N
MOLT-4 = system: MOLT-4
Malme-3M = system: Malme-3M
NCI-H226 = system: NCI-H226
NCI/ADR-RES = system: NCI/ADR-RES
OVCAR-4 = system: OVCAR-4
OVCAR-5 = system: OVCAR-5
SF-295 = system: SF-295
SK-MEL-5 = system: SK-MEL-5
SR = system: SR
TK-10 = system: TK-10
UACC-62 = system: UACC-62

Row | SMILES | GI50 (DU-145) | GI50 (HCT-116) | GI50 (HCT-15) [µM] | GI50 (HOP-92) | GI50 (Hs-578T) | GI50 (IGROV-1) | GI50 (K562) | GI50 (MDA-MB-231) | GI50 (MDA-N) | GI50 (MOLT-4) | GI50 (Malme-3M) | GI50 (NCI-H226) | GI50 (NCI/ADR-RES) | GI50 (OVCAR-4) | GI50 (OVCAR-5) | GI50 (SF-295) | GI50 (SK-MEL-5) | GI50 (SR) | GI50 (TK-10) | GI50 (UACC-62)
1 | CC(=O)OC1CCC2(C)C(CCC3C2CC(=O)C2(C)C3CC(N3CC3)C2C(C)=O)C1 (stereo not given) | 32.6 µM (inactive) | 20.7 µM (inactive) | 18.9 | 18.4 µM (inactive) | 15.1 µM (inactive) | 13.6 µM (inactive) | 15.2 µM (inactive) | 16.7 µM (inactive) | 21.8 µM (inactive) | 2.11 µM (inactive) | 18.7 µM (inactive) | 19.1 µM (inactive) | 24.6 µM (inactive) | 19.8 µM (inactive) | 37.4 µM (inactive) | 5.71 µM (inactive) | 15.2 µM (inactive) | 1.78 µM (inactive) | 19.6 µM (inactive) | 16.2 µM (inactive)
2 | C(=C\c1cccs1)/c1cccc(/C=C/c2cccs2)n1 | > 100 µM (inactive) | > 100 µM (inactive) | > 100 | > 100 µM (inactive) | 2.58 µM (inactive) | 50 µM (inactive) | > 100 µM (inactive) | > 100 µM (inactive) | > 100 µM (inactive) | > 100 µM (inactive) | 1.72 µM (inactive) | > 100 µM (inactive) | > 100 µM (inactive) | 12.4 µM (inactive) | > 100 µM (inactive) | > 100 µM (inactive) | > 100 µM (inactive) | 32.4 µM (inactive) | 34.9 µM (inactive) | > 100 µM (inactive)
3 | C=C(C)CNC(=S)N(N)c1ccc2ccccc2c1 | > 100 µM (inactive) | > 100 µM (inactive) | 5.01 | > 100 µM (inactive) | > 100 µM (inactive) | 11.4 µM (inactive) | 40.4 µM (inactive) | > 100 µM (inactive) | > 100 µM (inactive) | > 100 µM (inactive) | > 100 µM (inactive) | > 100 µM (inactive) | 78 µM (inactive) | > 100 µM (inactive) | 27.7 µM (inactive) | 94.2 µM (inactive) | > 100 µM (inactive) | > 100 µM (inactive) | 23.6 µM (inactive) | 23.9 µM (inactive)
4 | CCOc1ccc(N/C(Cl)=C(Cl)\C(=C(\Nc2ccc(OCC)cc2)n2nnc3ccccc32)[N+](=O)[O-])cc1 | 14.5 µM (inactive) | 2.15 µM (inactive) | 1.91 | 2.25 µM (inactive) | 2.58 µM (inactive) | 1.79 µM (inactive) | 2.36 µM (inactive) | 6.08 µM (inactive) | 3.82 µM (inactive) | 2.85 µM (inactive) | 2.32 µM (inactive) | 19.4 µM (inactive) | 15.2 µM (inactive) | 10.3 µM (inactive) | 9.44 µM (inactive) | 22.1 µM (inactive) | 8.49 µM (inactive) | 1.45 µM (inactive) | 4.49 µM (inactive) | 15.7 µM (inactive)
5 | COC(=O)[C@H]1[C@@H](C(C)C)O[C@@H](C(C)C)O[C@H]1C(F)(F)F | > 100 µM (inactive) | > 100 µM (inactive) | > 100 | 44.6 µM (inactive) | > 100 µM (inactive) | 37.9 µM (inactive) | > 100 µM (inactive) | > 100 µM (inactive) | > 100 µM (inactive) | > 100 µM (inactive) | > 100 µM (inactive) | > 100 µM (inactive) | > 100 µM (inactive) | > 100 µM (inactive) | > 100 µM (inactive) | > 100 µM (inactive) | > 100 µM (inactive) | > 100 µM (inactive) | > 100 µM (inactive) | > 100 µM (inactive)
6 | CC(=O)OCc1cncn1S(=O)(=O)c1ccc(C)cc1 | > 100 µM (inactive) | 25.6 µM (inactive) | 20.3 | > 100 µM (inactive) | > 78.5 µM (inactive) | > 74 µM (inactive) | 5.37 µM (inactive) | > 100 µM (inactive) | 9.46 µM (inactive) | 32 µM (inactive) | > 100 µM (inactive) | > 100 µM (inactive) | > 55.5 µM (inactive) | > 76.7 µM (inactive) | > 100 µM (inactive) | > 100 µM (inactive) | 24.2 µM (inactive) | 11.4 µM (inactive) | > 100 µM (inactive) | > 91 µM (inactive)
7 | O=P1(Oc2ccccc2)N(CCCl)CCN1c1ccccc1 (stereo not given) | > 100 µM (inactive) | 75.3 µM (inactive) | > 100 | > 100 µM (inactive) | > 100 µM (inactive) | 42.7 µM (inactive) | > 100 µM (inactive) | 95.7 µM (inactive) | > 100 µM (inactive) | 61.8 µM (inactive) | > 100 µM (inactive) | > 100 µM (inactive) | 83.6 µM (inactive) | 23.4 µM (inactive) | > 100 µM (inactive) | > 100 µM (inactive) | 66.5 µM (inactive) | 79.3 µM (inactive) | 81.5 µM (inactive) | > 100 µM (inactive)
8 | Cc1cc(NS(=O)(=O)c2ccc(NC(=O)c3cccc4c(NNc5ccc(S(=O)(=O)N=C(N)N)cc5)c5ccccc5nc34)cc2)no1 | 51.5 µM (inactive) | 40.2 µM (inactive) | 63.4 | 17.3 µM (inactive) | 27.4 µM (inactive) | 45.6 µM (inactive) | 36.8 µM (inactive) | 44.2 µM (inactive) | 68.5 µM (inactive) | 28 µM (inactive) | 94.4 µM (inactive) | 25.2 µM (inactive) | > 100 µM (inactive) | 58.7 µM (inactive) | 83.6 µM (inactive) | 69.7 µM (inactive) | 44.7 µM (inactive) | 35.8 µM (inactive) | > 100 µM (inactive) | 42.9 µM (inactive)
9 | Nc1cccc(/C=C/C(=O)N2CCN(CCOC(c3ccccc3)c3ccccc3)CC2)c1 | 15.1 µM (inactive) | 15.5 µM (inactive) | 16.3 | 12.9 µM (inactive) | 21 µM (inactive) | 18.2 µM (inactive) | 9.98 µM (inactive) | 15.7 µM (inactive) | 17.8 µM (inactive) | 5.42 µM (inactive) | 16.7 µM (inactive) | 20.9 µM (inactive) | 17.3 µM (inactive) | 12.4 µM (inactive) | 19.1 µM (inactive) | 17.3 µM (inactive) | 15.9 µM (inactive) | 14.4 µM (inactive) | 15 µM (inactive) | 16.1 µM (inactive)
10 | COc1ccccc1/C=C1\CCC(Cc2ccccc2)(CN(C)C)C1=O (stereo not given) | 7.93 µM (inactive) | 0.406 µM (active) | 0.29 | 27.5 µM (inactive) | 0.834 µM (active) | 3.67 µM (inactive) | 0.0851 µM (active) | 4.59 µM (inactive) | 0.685 µM (active) | 1.05 µM (active) | 14.1 µM (inactive) | 23.6 µM (inactive) | 0.989 µM (active) | 17.8 µM (inactive) | 14.5 µM (inactive) | 1.34 µM (inactive) | 1.85 µM (inactive) | 0.0948 µM (active) | 5.96 µM (inactive) | 1.28 µM (inactive)
11 | CCNc1nnc(-c2ccccc2Nc2ccccc2-c2nnc(NCC)s2)s1 | 4.72 µM (inactive) | 9.89 µM (inactive) | 4.37 | 5.92 µM (inactive) | 12.3 µM (inactive) | 6.18 µM (inactive) | 37.2 µM (inactive) | 8.02 µM (inactive) | 9.73 µM (inactive) | 4.35 µM (inactive) | 19.2 µM (inactive) | 20.2 µM (inactive) | 10.5 µM (inactive) | 27.5 µM (inactive) | 18.2 µM (inactive) | 16.3 µM (inactive) | 5.52 µM (inactive) | 47.8 µM (inactive) | 11.4 µM (inactive) | 11.5 µM (inactive)
12 | O=S(=O)(O)c1cccc2cccc(/N=N/c3c(O)ccc4ccccc34)c12 | > 100 µM (inactive) | > 100 µM (inactive) | > 100 | > 100 µM (inactive) | > 100 µM (inactive) | 31.9 µM (inactive) | > 100 µM (inactive) | > 100 µM (inactive) | > 100 µM (inactive) | > 100 µM (inactive) | > 100 µM (inactive) | > 100 µM (inactive) | > 100 µM (inactive) | > 100 µM (inactive) | > 100 µM (inactive) | > 100 µM (inactive) | > 100 µM (inactive) | > 100 µM (inactive) | > 100 µM (inactive) | > 100 µM (inactive)
13 | COC1C(CO)OC(n2c3c(Cl)cccc3c3c4c(c5c6cccc(Cl)c6[nH]c5c32)C(=O)NC4=O)C(O)C1O (stereo not given) | 0.202 µM (active) | 0.097 µM (active) | 0.401 | 0.215 µM (active) | 0.31 µM (active) | 0.299 µM (active) | 0.142 µM (active) | 0.276 µM (active) | 0.324 µM (active) | 0.0498 µM (active) | 0.223 µM (active) | 0.187 µM (active) | 0.444 µM (active) | 0.337 µM (active) | 0.796 µM (active) | 0.286 µM (active) | 0.157 µM (active) | 0.0282 µM (active) | 0.47 µM (active) | 0.113 µM (active)
14 | Cc1occc1C(=S)Nc1ccc(Cl)c(/C=N/OC(C)(C)C)c1 | 19.7 µM (inactive) | 13.5 µM (inactive) | 15 | 13 µM (inactive) | 19.8 µM (inactive) | 23.8 µM (inactive) | 31.6 µM (inactive) | 19.7 µM (inactive) | 18.9 µM (inactive) | 9.51 µM (inactive) | 21.8 µM (inactive) | 16.9 µM (inactive) | 14.7 µM (inactive) | 18.3 µM (inactive) | 15 µM (inactive) | 13.3 µM (inactive) | 17.3 µM (inactive) | 12.9 µM (inactive) | 21.9 µM (inactive) | 14.3 µM (inactive)
